{"source": "patent US5466716A", "about": "“Liposomal trimethylsphingosine” (The Biomembrane Institute, priority 1994, dated 1995)", "key": {"[1]": {"tested_on": "neutrophils", "experiment": "phagokinetic activity of neutrophils on gold sol-coated plates", "format": "cell-based, human", "experimental": "The phagokinetic activity of neutrophils on gold sol-coated plates can be determined by a technique essentially as taught in Albrecht-Buehler (Cell, 11, 395, 1977). […] Thus, the inhibitory effect of TMS on phagokinetic activity is not dependent on cytotoxicity.\n.sctn. The area swept by neutrophils was determined in photographs of the\nmonolayers. The regions cleared by neutrophil movement were then cut out\nPhagokinetic activity was observed by tracing tracks of neutrophils moving on a glass substrate covered with gold colloid particles. The technique was described originally by Albrecht-Buehler, supra, using 3T3 and other cell lines. Briefly, 22×22 mm square glass coverslips (Corning Glass Works, Corning, N.Y.) were dipped for 1 min into 1% BSA prepared in Milli Q water. The BSA solution was prepared fresh each day and passed through 0.20 μm Nalgene filters (Nalgene Labware Division, Rochester, N.Y.).\nThe coverslip then was drained by touching a Kim-wipe paper towel to its edge, dipped into 100% ethanol and rapidly and completely dried in a 85° C. hot airstream. The coverslip was placed in a 3.5 cm Falcon plastic dish. Then 5.4 ml of AuCl4 H and 18 ml of 36.5 mM Na2 CO3 were added to 33 ml of distilled water and heated. Immediately after reaching the boiling point, 5.4 ml of 0.1% formaldehyde in water were added quickly and mixed. The suspension of gold particles forming a brownish color was distributed immediately onto the dish (2 ml each) and the coverslip was incubated for 2 hr at 37° C.\nParticle-coated coverslips were washed in PBS, then twice in RPMI 1640 and finally put in another 3.5 cm Falcon plastic dish containing 2 ml of RPMI 1640 with glutamate and pyruvate. The coverslips were stored at 4° C. and used within 24 hr after preparation.\nThe freshly-purified neutrophils (1×10^4 cells/plate) were added onto the colloid-coated coverslip. TMS and other effectors were added into the medium on the plate. As a control, the solvent of the effectors (50% ethanol) was added at an equal amount. At that concentration (0.1%), ethanol brought no significant effect on neutrophil activities. To observe cell recovery from exposure to the effectors, neutrophils (2×10^5 cells/ml) were pre-incubated at 37° C. with 12 μM of TMS, SPN and DMS, then distributed to the dish dropwise, diluting the effectors 200-fold. Incubation was conducted under 5% CO2 at 37° C. for 2 hr and terminated by adding 200 μl of 10% formaldehyde. Microscopic examination of each plate was performed with a Nikon microscope, connected to a Polaroid camera for recordings. Phagokinetic activity was measured by tracing the track of a neutrophil. The track was recorded with photographs, then the area was measured by cutting and weighing there swept area."}, "[2]": {"tested_on": "neutrophils", "experiment": "neutrophil transmigration through HUVEC monolayer", "format": "cell-based, human", "details": "for neutrophil transmigration (number of cells transmigrated): Table II, control 100, 90 min", "experimental": "(§1) A characteristic of neutrophils is the ability to adhere to activiated EC's and to migrate through the EC monolayer into the vascular or extravascular matrix. The effect of TMS on neutrophil interactions with EC's and their subsequent trans-endothelial migration thereof can be monitored in vitro using human umbilical endothelial cells (HUVEC's) (Luscinskas et al., J. Imm., 146, 1617, 1991). Neutrophils are added to a HUVEC monolayer and neutrophil-HUVEC interactions are assessed microscopically following fixation, embedding and staining of monolayer sections.\nCross-sections (2 μm) of the collagen bed with HUVEC's and neutrophils\nwere observed using a Zeiss light microscope with KPL W10 ahd Ph2 Neoflua\n16 lenses. The number of cells transmigrated were counted for each view.\n(§2) HUVEC's and culture media were purchased from Cell Systems (Kirkland, Wash.). The cells were maintained and cultured as described in Luscinskas et al., supra, with some modifications. Briefly, HUVEC's were maintained in 10 ml tissue culture flasks on a collagen type I bed obtained from rat tail (Upstate Biotechnology Inc, Lake Placid, N.Y.) with CS-complete medium, CS-growth factor and CS-AF-1 (Cell Systems). Cells became confluent within 2 to 4 days when incubated in 5% CO2 at 37° C.\nFor the transmigration assay, thick gels were formed in 24-well tissue culture plates. Preparation of the gel solution was carried out at 4° C. Eight parts of collagen solution (Vitrogen 100, from bovine tendon which contained less than 5 ng/ml endotoxin; Celtrix Labs, Palo Alto, Calif.), one part of 10×RPMI and one part of alkaline solution (2.2 g NaHCO3 in 100 ml of 0.05N NaOH and 200 mM HEPES) were mixed gently and distributed at 0.7 ml/well. The solution was left for 4 hr at 37° C. to eliminate air bubbles, then allowed to gel in a 37° C. oven for 3 hr. The wells were washed with 1.0 ml of CS-complete medium with attachment factors at least 4 times and every 3 to 6 hr during further incubation at 37° C. in 5% CO2.\nHUVEC's at a passage level of less than 3 were detached from 10 ml tissue culture flasks with 3 ml of Trypsin-EDTA at 37° C. for 30 to 60 sec. Immediately, 3 ml of M199 with 20% heat-inactivated FCS was added. Cells were collected by centrifugation. The pellet was resuspended in 10 ml of CS-complete medium with attachment factors. Homogeneous cell suspensions were plated at 0.7 ml to each well and the plates were incubated for 3 hr at 37° C. The supernatant, which contains dead cells, was aspirated carefully and fresh complete medium with attachment factors was added.\nThe HUVEC monolayer in 24-well tissue culture plates were washed with M199 without FCS, then incubated with 1 ml/well of IL-1β (Boehringer Mannheim Biochemical Products, Indianapolis, Ind.) dissolved in M199 with 1% heat-inactivated FCS (HIFCS) at 10 U/ml. The plates were incubated at 37° C., 5% CO2 for 4 hr then washed gently with 1 ml of M199. The purified neutrophil suspension (1.5×10^6 cells/ml) in M199 containing 1% HIFCS was pre-incubated with TMS, or other effectors, for 10 min at 37° C. After aspirating the media in the well, 0.5 ml of the neutrophil suspension were added onto the HUVEC monolayer. The tissue culture plate was incubated for 90 min at 37° C.\nThe culture was terminated by gently aspirating the cell suspension, adding 1 ml of 10% formaldehyde in PBS and stored at 4° C. overnight for fixation. The edge of the collagen bed was cut with a small spatula along the wall 2 hr before removal from the well. The collagen bed, which has HUVEC's on the surface and transmigrated neutrophils within was embedded in paraffin, sectioned and followed by staining with hematoxylin-eosin for microscopic examination."}, "[3]": {"experiment": "neutrophil viability (trypan blue exclusion)", "format": "cell-based, human", "details": "neutrophils, Table III, control 94", "experimental": "(§3) The viability was evaluated by trypan blue exclusion assay. The cell\n(§4) incubated at 37° C. for 10 min with effectors. The aliquot was\n(§5) mixed with an equal amount of trypan blue solution and immediately counte\n(§6) under a Nikon light microscope."}, "[4]": {"tested_on": "HUVEC's", "experiment": "morphologic damage to endothelial cells (HUVEC's)", "format": "cell-based, human", "details": "staurosporine 2 μM, calphostin C 5 μM", "experimental": "as §1, §2\nThe HUVEC monolayer in 24-well tissue culture plates were washed with M199 without FCS, then incubated with 1 ml/well of IL-1β (Boehringer Mannheim Biochemical Products, Indianapolis, Ind.) dissolved in M199 with 1% heat-inactivated FCS (HIFCS) at 10 U/ml. The plates were incubated at 37° C., 5% CO2 for 4 hr then washed gently with 1 ml of M199. […]"}, "[5]": {"experiment": "water solubility", "format": "physicochemical", "details": "particularly at physiologic pH", "excerpt": "For comparison purposes those same test cells also are exposed to sphingosine and N,N-dimethylsphingosine."}, "[6]": {"tested_on": "neutrophils", "experiment": "neutrophil viability (trypan blue exclusion)", "format": "cell-based, human", "details": "Table V, 37° C., 10 min, in % (unit assumed)", "experimental": "as §3, §4, §5, §6"}, "[7]": {"tested_on": "phosphoinositide turnover", "experiment": "fMLP-induced phosphoinositide turnover in neutrophils (32P incorporation)", "format": "cell-based, human", "details": "Table VI, 1 μM fMLP alone, control 100", "experimental": "Amount of ^32 P in PIP and PIP2 was measured using TLC separation. The spots on TLC plates were scraped off and the radioactivity therein was measured with a Beckman scintillation counter. Each spot was compared as to intensity with the identical spot of the control sample.\nAfter incubation, the cells were washed and resuspended in the same buffer at a concentration of 1×10^7 cells/ml. Each suspension (1 ml) then was pretreated with TMS, SPN or DMS, or equal volume of 50% ethanol, for 10 min at 37° C. Then keeping the same temperature, fMLP was added to a final concentration of 1.0 μM. Two minutes later, the reaction was terminated by adding 3.75 ml of chloroform/methanol (1:2) to each cell suspension, followed by sonication for 15 min. An additional 1.25 ml of chloroform, 1.25 ml of water and 50 μl of acetone were added and the total mixture was mixed and left overnight.\nFollowing centrifugation of the mixture, the phospholipids were extracted by Folch's partition method, taking the lower phase from the cell lysate. […] The TLC plate was developed with control phospholipids, in a solvent comprising chloroform/methanol/4M NaOH at a ratio of 45:35:10 and containing 0.1% CDTA (trans-1,2-diaminocyclohexane-N,N,N',N'-tetraacetic acid) for 65 min at 37° C. The bands were identified by staining the control phospholipids with primuline and visualization under ultraviolet light. Autoradiography was performed with Kodak diagnostic film GBX-2 (Rochester N.Y.) by exposing overnight at 37° C."}, "[8]": {"tested_on": "GMP-140", "experiment": "GMP-140 expression on platelets (flow cytometry, mAb AC1.2)", "format": "cell-based, human", "experimental": "FIGS. 11A and 11B depict results of representative experiments assessing the percentage of platelets capable of binding an anti-GMP-140 antibody following exposure to various agents. The percentage binding activity was determined in a flow cytometer. SPN is sphingosine; H-7 is 1-(5-isoquinolinylsulfonyl)-2-methylpiperazine; Cal is calphostin-C; TMS is trimethylsphingosine; and DMS is dimethylsphingosine.\nGMP-140 expression was determined by (i) flow cytometry with mAb AC1.2, which is directed to GMP-140 and obtained from Dr. Furie (Tufts Univ. Sch. Med., Boston, Mass.) and (ii) adhesion of HL60 cells on platelet-coated solid phase.\nA suspension of platelets (1×10^8 /ml) in Tyrode's buffer was preincubated with inhibitor at pH 7.2, 37° C., for 5 minutes, then supplemented with activator, either thrombin (final concentration 1 U/ml) or phorbol 12-myristate 13-acetate (PMA (final concentration 10^-7 M), and the mixture was incubated at 37° C. for 10 minutes. Platelets were fixed with an equal volume of 2% (w/v) paraformaldehyde in PBS and washed 2 times with PBS containing 1% (w/v) BSA.\nThe paraformaldehyde-fixed platelets were incubated with 50 μl of mAb AC1.2 (2.5 μg/ml) at room temperature for 30 minutes. Platelets were washed 2 times with PBS containing 1% (w/v) BSA, supplemented with 50 μl of fluorescein isothiocyanate-labeled goat anti-mouse Ig (purchased from Tago Co., Burlingame, Calif.), incubated at room temperature for 30 minutes and again washed 2 times with PBS containing 1% (w/v) BSA. As a negative control, paraformaldehyde-fixed platelets were incubated with mouse IgG instead of mAb AC1.2 and treated as described above.\nThe platelets were analyzed in an Epics flow cytometer (Coulter Corp.) with suitable gating. To calculate the inhibitory effect of various reagents, the mean fluorescence intensity of resting platelets (obtained on incubation of platelets without activator) was subtracted from the value for the activated platelet sample."}, "[9]": {"tested_on": "protein kinase-C", "details": "in vitro, Tamaoki & Nakano; cited from earlier work"}, "[10]": {"details": "Homo sapiens, Neutrophil, 2 h, read-out: Area Swept"}, "[11]": {"details": "Homo sapiens, Neutrophil, 1.5 h, read-out: Number of Cells/View"}}, "data": [{"compound": "CN[C@@H]1C[C@H]2O[C@@](C)([C@@H]1OC)n1c3ccccc3c3c4c(c5c6ccccc6n2c5c31)C(=O)NC4", "note": "[Staurosporine]", "values": [{"measurement": "activity at 0.2 µM", "setting": "[1]; [10]", "value": "13 ± 12", "unit": "%"}, {"measurement": "activity at 2 µM", "setting": "[2]; [11]", "value": "52 ± 25", "unit": "%"}, {"measurement": "viability at 10 min, 2 µM", "setting": "[3]; 2 μM", "value": "83 ± 3.6", "unit": "%"}, {"measurement": "morphologic damage to EC's", "setting": "[4]", "value": "striking morphologic damage to EC's"}]}, {"compound": "CCCCCCCCCCCCC/C=C/[C@@H](O)[C@H](CO)NC", "note": "[N-monomethylsphingosine]", "values": [{"measurement": "water solubility", "setting": "[5]", "value": "less water soluble"}]}, {"compound": "Ceramide", "values": [{"measurement": "Area Swept", "setting": "[1]; Table I, 4.5 μM, control 100, 120 min", "value": "109 ± 25", "unit": "%"}, {"measurement": "neutrophil transmigration (number of cells transmigrated)", "setting": "[2]; 4 μM", "value": "92 ± 24"}, {"measurement": "neutrophil transmigration (number of cells transmigrated)", "setting": "[2]; 15 μM", "value": "87 ± 27"}, {"measurement": "neutrophil transmigration (number of cells transmigrated)", "setting": "[2]; 45 μM", "value": "83 ± 16"}, {"measurement": "Viability of neutrophils", "setting": "[6]; 5 μM", "value": "98 ± 2"}, {"measurement": "Viability of neutrophils", "setting": "[6]; 15 μM", "value": "96 ± 1"}, {"measurement": "Viability of neutrophils", "setting": "[6]; 45 μM", "value": "91 ± 3"}]}, {"compound": "CSCC[C@H](NC=O)C(=O)N[C@@H](CC(C)C)C(=O)N[C@@H](Cc1ccccc1)C(=O)O", "note": "[fMLP, formyl-methionyl-leucyl-phenylalanine, reference compound]", "values": [{"measurement": "PIP labeling", "setting": "[7]", "value": "182 ± 39"}]}, {"compound": "CC1CNCCN1S(=O)(=O)c1cccc2cnccc12", "note": "(stereo not shown) [H-7, 1-(5-isoquinolinylsulfonyl)-2-methylpiperazine]", "values": [{"measurement": "activity at 200 µM", "setting": "[1]; [10]", "value": "27 ± 6", "unit": "%"}, {"measurement": "activity at 200 µM", "setting": "[2]; [11]", "value": "38 ± 12", "unit": "%"}, {"measurement": "viability at 10 min, 200 µM", "setting": "[3]; 200 μM", "value": "79 ± 7.1", "unit": "%"}, {"measurement": "inhibition of GMP-140 expression", "setting": "[8]; PMA-induced, FIG. 11B", "value": "Neither SPN nor H-7 showed inhibition"}, {"measurement": "inhibition of GMP-140 expression", "setting": "[8]; thrombin-induced, FIG. 11A", "value": "no inhibition"}, {"measurement": "concentration reported to inhibit protein kinase-C", "setting": "[9]", "value": 15, "unit": "µM"}]}]}
